Data from PubChem BioAssay AID2060604 (Molecular Pharmacology Branch, DTP, NCI, 2025).
pIC50: −log10 of the molar value. Blank lines part the entries; values can stand above or below the compound they belong to.

Test system: 379773-124-R-J2-PDC complex spheroids, viability % test/control
Assay: Anticancer human tumor 379773-124-R-J2-PDC patient-derived endometrial carcinoma cell line growth inhibition [CLK]
Conditions: for pIC50: curve of first compound; for viability, T/C: stronger effect = lower value
Method in brief: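 Multi-cell-type spheroids combined patient-derived tumor cells with HUVEC endothelial cells and human mesenchymal stem cells. Paired agents were dosed in half-log steps down from about clinical Cmax, or from 10 microM where Cmax was unknown.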

[1] = second compound 0.0316 µM, first compound 0.0316 µM
[2] = second compound 0.0316 µM, first compound 0.1 µM
[3] = second compound 0.0316 µM, first compound 0.316 µM
[4] = second compound 0.0316 µM, first compound 1 µM
[5] = second compound 0.0316 µM, first compound 3.16 µM
[6] = second compound 0.0316 µM, first compound 10 µM
[7] = second compound 0.1 µM, first compound 0.0316 µM
[8] = second compound 0.1 µM, first compound 0.1 µM
[9] = second compound 0.1 µM, first compound 0.316 µM
[10] = second compound 0.1 µM, first compound 1 µM
[11] = second compound 0.1 µM, first compound 3.16 µM
[12] = second compound 0.1 µM, first compound 10 µM
[13] = second compound 0.316 µM, first compound 0.0316 µM
[14] = second compound 0.316 µM, first compound 0.1 µM
[15] = second compound 0.316 µM, first compound 0.316 µM
[16] = second compound 0.316 µM, first compound 1 µM
[17] = second compound 0.316 µM, first compound 3.16 µM
[18] = second compound 0.316 µM, first compound 10 µM
[19] = second compound 1 µM, first compound 0.0316 µM
[20] = second compound 1 µM, first compound 0.1 µM
[21] = second compound 1 µM, first compound 0.316 µM
[22] = second compound 1 µM, first compound 1 µM
[23] = second compound 1 µM, first compound 3.16 µM
[24] = second compound 1 µM, first compound 10 µM
[25] = second compound 3.16 µM, first compound 0.0316 µM
[26] = second compound 3.16 µM, first compound 0.1 µM
[27] = second compound 3.16 µM, first compound 0.316 µM
[28] = second compound 3.16 µM, first compound 1 µM
[29] = second compound 3.16 µM, first compound 3.16 µM
[30] = second compound 3.16 µM, first compound 10 µM
[31] = second compound 10 µM, first compound 0.0316 µM
[32] = second compound 10 µM, first compound 0.1 µM
[33] = second compound 10 µM, first compound 0.316 µM
[34] = second compound 10 µM, first compound 1 µM
[35] = second compound 10 µM, first compound 3.16 µM
[36] = second compound 10 µM, first compound 10 µM
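Further: compound exposure lasted seven days before the viability readout.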
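Wherever viability, T/C is given: 100% = DMSO vehicle control wells.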

pIC50 (second compound 0.0316 µM): < 5.00
pIC50 (second compound 0.1 µM): > 7.50
pIC50 (second compound 0.316 µM): > 7.50
pIC50 (second compound 1 µM): > 7.50
pIC50 (second compound 3.16 µM): > 7.50
pIC50 (second compound 10 µM): > 7.50
Structure (SMILES): C#Cc1c(F)ccc2cc(O)cc(-c3ncc4c(N5CC6CCC(C5)N6)nc(OCC56CCCN5CC(F)C6)nc4c3F)c12 (centres undefined) + CNC(=O)c1ccc(Nc2nc(OC3CCCC3)c3c(-c4ccc5nc(C)oc5c4)c[nH]c3n2)c(OC)c1
viability, T/C [1]: 73.2%
viability, T/C [2]: 65%
viability, T/C [3]: 72.9%
viability, T/C [4]: 79.1%
viability, T/C [5]: 71.3%
viability, T/C [6]: 62%
viability, T/C [7]: 41.2%
viability, T/C [8]: 39%
viability, T/C [9]: 38.3%
viability, T/C [10]: 32.4%
viability, T/C [11]: 32.2%
viability, T/C [12]: 36%
viability, T/C [13]: 41%
viability, T/C [14]: 33.1%
viability, T/C [15]: 39%
viability, T/C [16]: 37.1%
viability, T/C [17]: 33.4%
viability, T/C [18]: 28.4%
viability, T/C [19]: 38.8%
viability, T/C [20]: 33%
viability, T/C [21]: 25.8%
viability, T/C [22]: 29.1%
viability, T/C [23]: 33.1%
viability, T/C [24]: 29%
viability, T/C [25]: 31.9%
viability, T/C [26]: 27.4%
viability, T/C [27]: 28.3%
viability, T/C [28]: 31.4%
viability, T/C [29]: 28%
viability, T/C [30]: 23.2%
viability, T/C [31]: 32.7%
viability, T/C [32]: 27.1%
viability, T/C [33]: 28%
viability, T/C [34]: 27.1%
viability, T/C [35]: 27.4%
viability, T/C [36]: 27.1%

pIC50 (second compound 0.0316 µM): < 5.00
pIC50 (second compound 0.1 µM): > 7.50
pIC50 (second compound 0.316 µM): > 7.50
pIC50 (second compound 1 µM): > 7.50
pIC50 (second compound 3.16 µM): > 7.50
pIC50 (second compound 10 µM): > 7.50
Structure (SMILES): CC(CO)NC(=O)c1cc(-c2ccc(Cl)cc2)nn(-c2cnn(C)c2)c1=O (centres undefined) + CNC(=O)c1ccc(Nc2nc(OC3CCCC3)c3c(-c4ccc5nc(C)oc5c4)c[nH]c3n2)c(OC)c1
viability, T/C [1]: 72%
viability, T/C [2]: 80.9%
viability, T/C [3]: 70.2%
viability, T/C [4]: 74.2%
viability, T/C [5]: 72.4%
viability, T/C [6]: 52.2%
viability, T/C [7]: 48.2%
viability, T/C [8]: 48.5%
viability, T/C [9]: 44.4%
viability, T/C [10]: 38.9%
viability, T/C [11]: 36.8%
viability, T/C [12]: 33.3%
viability, T/C [13]: 42.1%
viability, T/C [14]: 42.2%
viability, T/C [15]: 37.7%
viability, T/C [16]: 35.4%
viability, T/C [17]: 43.8%
viability, T/C [18]: 29.9%
viability, T/C [19]: 32.2%
viability, T/C [20]: 37.4%
viability, T/C [21]: 34.8%
viability, T/C [22]: 34.6%
viability, T/C [23]: 35.6%
viability, T/C [24]: 25.2%
viability, T/C [25]: 32.6%
viability, T/C [26]: 30%
viability, T/C [27]: 32.5%
viability, T/C [28]: 30.9%
viability, T/C [29]: 34.5%
viability, T/C [30]: 24.4%
viability, T/C [31]: 32%
viability, T/C [32]: 30.5%
viability, T/C [33]: 28.5%
viability, T/C [34]: 35.8%
viability, T/C [35]: 32.4%
viability, T/C [36]: 22.7%
